Results published in the NIST ThermoML archive (doi:10.1016/j.jct.2008.01.012).
± gives the expanded uncertainty stated by the source.

Legend:
[1] = Liquid, Diaphragm manometer
[2] = excess molar enthalpy (molar enthalpy of mixing); xn = mol fraction of the nth substance listed; details: 303.15 K, 101 kPa, Liquid, Calvet calorimetry

With CCCCCCC [heptane] the “vapor or sublimation pressure” value ([1]; 303.15 K) was 7.786 ± 0.34 kPa, the “vapor or sublimation pressure” value ([1]; 313.15 K) was 12.32 ± 0.54 kPa and the “vapor or sublimation pressure” value ([1]; 323.15 K) was 18.85 ± 0.82 kPa. The “vapor or sublimation pressure” value ([1]; 333.15 K) was 27.98 ± 1.2 kPa and the “vapor or sublimation pressure” value ([1]; 343.15 K) was 40.43 ± 1.8 kPa.

CCN(CC)CCCN [N,N-diethylpropane-1,3-diamine] + CCCCCCCCCCCC showed an excess molar enthalpy ([2]; x1 = 0.0601) of 0.0915 ± 0.00382 kcal/mol, an excess molar enthalpy ([2]; x1 = 0.1207) of 0.161 ± 0.00645 kcal/mol and an excess molar enthalpy ([2]; x1 = 0.2122) of 0.242 ± 0.0098 kcal/mol. For the same molecule, the excess molar enthalpy ([2]; x1 = 0.3099) was 0.298 ± 0.0122 kcal/mol, the excess molar enthalpy ([2]; x1 = 0.4093) was 0.325 ± 0.0131 kcal/mol and the excess molar enthalpy ([2]; x1 = 0.4522) was 0.328 ± 0.0134 kcal/mol. It also gave an excess molar enthalpy ([2]; x1 = 0.5054) of 0.327 ± 0.0134 kcal/mol, an excess molar enthalpy ([2]; x1 = 0.6037) of 0.312 ± 0.0127 kcal/mol and an excess molar enthalpy ([2]; x1 = 0.71) of 0.267 ± 0.011 kcal/mol. For the same molecule, the excess molar enthalpy ([2]; x1 = 0.8047) was 0.207 ± 0.00837 kcal/mol, the excess molar enthalpy ([2]; x1 = 0.9021) was 0.119 ± 0.00478 kcal/mol and the excess molar enthalpy ([2]; x1 = 0.9498) was 0.0648 ± 0.00263 kcal/mol.

With CCN(CC)CCCN [N,N-diethylpropane-1,3-diamine] the “vapor or sublimation pressure” value ([1]; 303.15 K) was 0.31 ± 0.014 kPa, the “vapor or sublimation pressure” value ([1]; 313.15 K) was 0.586 ± 0.026 kPa and the “vapor or sublimation pressure” value ([1]; 323.15 K) was 1.053 ± 0.046 kPa. For the same molecule, the “vapor or sublimation pressure” value ([1]; 333.15 K) was 1.809 ± 0.079 kPa and the “vapor or sublimation pressure” value ([1]; 343.15 K) was 2.987 ± 0.13 kPa.

Work on CCN(CC)CCCN [N,N-diethylpropane-1,3-diamine] + CCCCCCC yielded an excess molar enthalpy ([2]; x1 = 0.0503) of 0.0645 ± 0.00263 kcal/mol, an excess molar enthalpy ([2]; x1 = 0.1038) of 0.121 ± 0.00502 kcal/mol and an excess molar enthalpy ([2]; x1 = 0.1491) of 0.16 ± 0.00645 kcal/mol. The excess molar enthalpy ([2]; x1 = 0.2452) was 0.217 ± 0.00884 kcal/mol, the excess molar enthalpy ([2]; x1 = 0.3961) was 0.255 ± 0.0103 kcal/mol and the excess molar enthalpy ([2]; x1 = 0.4516) was 0.258 ± 0.0105 kcal/mol. For the same molecule, the excess molar enthalpy ([2]; x1 = 0.5013) was 0.255 ± 0.0105 kcal/mol, the excess molar enthalpy ([2]; x1 = 0.5973) was 0.235 ± 0.00956 kcal/mol and the excess molar enthalpy ([2]; x1 = 0.7014) was 0.199 ± 0.00813 kcal/mol. The excess molar enthalpy ([2]; x1 = 0.7987) was 0.149 ± 0.00598 kcal/mol and the excess molar enthalpy ([2]; x1 = 0.8974) was 0.0834 ± 0.00335 kcal/mol.

CCN(CC)CCCN [N,N-diethylpropane-1,3-diamine] + CCCCCC showed an excess molar enthalpy ([2]; x1 = 0.0798) of 0.107 ± 0.0043 kcal/mol, an excess molar enthalpy ([2]; x1 = 0.1311) of 0.152 ± 0.00621 kcal/mol and an excess molar enthalpy ([2]; x1 = 0.212) of 0.202 ± 0.00813 kcal/mol. It also gave an excess molar enthalpy ([2]; x1 = 0.2521) of 0.215 ± 0.00884 kcal/mol, an excess molar enthalpy ([2]; x1 = 0.3083) of 0.232 ± 0.00956 kcal/mol and an excess molar enthalpy ([2]; x1 = 0.3089) of 0.232 ± 0.00956 kcal/mol. It also gave an excess molar enthalpy ([2]; x1 = 0.3472) of 0.239 ± 0.0098 kcal/mol, an excess molar enthalpy ([2]; x1 = 0.3858) of 0.24 ± 0.0098 kcal/mol and an excess molar enthalpy ([2]; x1 = 0.4188) of 0.241 ± 0.0098 kcal/mol. The excess molar enthalpy ([2]; x1 = 0.4682) was 0.241 ± 0.0098 kcal/mol, the excess molar enthalpy ([2]; x1 = 0.4835) was 0.241 ± 0.0098 kcal/mol and the excess molar enthalpy ([2]; x1 = 0.5079) was 0.239 ± 0.0098 kcal/mol. It also gave an excess molar enthalpy ([2]; x1 = 0.5984) of 0.229 ± 0.00932 kcal/mol, an excess molar enthalpy ([2]; x1 = 0.7107) of 0.194 ± 0.00789 kcal/mol and an excess molar enthalpy ([2]; x1 = 0.802) of 0.146 ± 0.00598 kcal/mol. The excess molar enthalpy ([2]; x1 = 0.8762) was 0.0978 ± 0.00406 kcal/mol.
